Patent publication US9446039B2, “Aminoheteroaryl compounds as MTH1 inhibitors” (CEMM—FORSCHUNGSZENTRUM FÜR MOLEKULARE MEDIZIN GMBH, priority 2012, dated 2016)

How the values were obtained:
Format in all cases: binding
[1] = biological target: SW480 colon carcinoma cells lysate proteins (Homo sapiens, UniProt P12814); conditions: PreyGene ACTN1
[2] = biological target: SW480 colon carcinoma cells lysate proteins (Homo sapiens, UniProt Q15056); conditions: PreyGene EIF4H
[3] = biological target: T1, SW480 colon carcinoma cells lysate proteins (Homo sapiens, UniProt Q15691); conditions: PreyGene MAPRE1
T1 sequence (Q15691 1-268): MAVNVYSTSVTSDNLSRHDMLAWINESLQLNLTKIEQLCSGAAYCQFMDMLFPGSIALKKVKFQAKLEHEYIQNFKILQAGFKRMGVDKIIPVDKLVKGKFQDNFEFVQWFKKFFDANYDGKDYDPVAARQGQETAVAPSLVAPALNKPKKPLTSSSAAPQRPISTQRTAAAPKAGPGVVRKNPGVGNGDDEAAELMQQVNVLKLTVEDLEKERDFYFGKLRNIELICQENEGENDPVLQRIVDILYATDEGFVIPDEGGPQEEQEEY

[4] = biological target: SW480 colon carcinoma cells lysate proteins (Homo sapiens, UniProt P07237); conditions: PreyGene P4HB
[5] = biological target: T2, SW480 colon carcinoma cells lysate proteins (Homo sapiens, UniProt O60664); conditions: PreyGene PLIN3
T2 sequence (O60664 1-434): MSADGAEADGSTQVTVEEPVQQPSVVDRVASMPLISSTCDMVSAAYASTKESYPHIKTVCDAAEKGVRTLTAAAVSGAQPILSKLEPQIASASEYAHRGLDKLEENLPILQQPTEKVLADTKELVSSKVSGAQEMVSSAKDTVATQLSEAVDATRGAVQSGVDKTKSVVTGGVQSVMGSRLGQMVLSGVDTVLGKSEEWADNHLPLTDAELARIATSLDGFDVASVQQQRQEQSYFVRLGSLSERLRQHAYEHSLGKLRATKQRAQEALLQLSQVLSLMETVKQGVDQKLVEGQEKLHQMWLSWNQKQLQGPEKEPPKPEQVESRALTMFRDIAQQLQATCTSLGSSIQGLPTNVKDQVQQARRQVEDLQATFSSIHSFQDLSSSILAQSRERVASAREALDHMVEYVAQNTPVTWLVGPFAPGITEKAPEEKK

[6] = biological target: SW480 colon carcinoma cells lysate proteins (Homo sapiens, UniProt Q16658); conditions: PreyGene FSCN1
[7] = biological target: T3, SW480 colon carcinoma cells lysate proteins (Homo sapiens, UniProt Q04837); conditions: PreyGene SSBP1; SW480 cells
T3 sequence (Q04837 17-148): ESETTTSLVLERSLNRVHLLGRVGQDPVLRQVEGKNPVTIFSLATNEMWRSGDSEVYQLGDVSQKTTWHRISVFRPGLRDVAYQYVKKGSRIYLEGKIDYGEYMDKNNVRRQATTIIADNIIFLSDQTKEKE

[8] = biological target: T4, SW480 colon carcinoma cells lysate proteins (Homo sapiens, UniProt P02533); conditions: PreyGene KRT14
T4 sequence (P02533 1-472): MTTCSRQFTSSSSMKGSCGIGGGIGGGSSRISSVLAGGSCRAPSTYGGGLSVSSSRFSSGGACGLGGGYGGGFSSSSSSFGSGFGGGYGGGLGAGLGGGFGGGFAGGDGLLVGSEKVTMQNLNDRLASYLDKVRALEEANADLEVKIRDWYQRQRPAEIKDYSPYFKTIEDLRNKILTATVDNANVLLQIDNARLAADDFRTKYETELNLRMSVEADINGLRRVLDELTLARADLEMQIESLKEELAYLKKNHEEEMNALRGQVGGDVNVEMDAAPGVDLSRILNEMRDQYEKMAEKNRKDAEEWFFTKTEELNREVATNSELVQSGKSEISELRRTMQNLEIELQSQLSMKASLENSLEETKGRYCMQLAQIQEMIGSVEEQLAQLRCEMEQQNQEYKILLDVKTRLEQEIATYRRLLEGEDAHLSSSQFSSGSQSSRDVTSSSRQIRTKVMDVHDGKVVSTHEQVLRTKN

[9] = biological target: T5, SW480 colon carcinoma cells lysate proteins (Homo sapiens, UniProt Q99497); conditions: PreyGene PARK7
T5 sequence (Q99497 1-189): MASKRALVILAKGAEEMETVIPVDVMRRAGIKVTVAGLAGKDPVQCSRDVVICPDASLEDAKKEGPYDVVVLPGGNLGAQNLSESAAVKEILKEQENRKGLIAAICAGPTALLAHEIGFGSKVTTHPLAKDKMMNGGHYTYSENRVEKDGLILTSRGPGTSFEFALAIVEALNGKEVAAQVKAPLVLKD

[10] = biological target: SW480 colon carcinoma cells lysate proteins (Homo sapiens, UniProt Q9Y266); conditions: PreyGene NUDC; SW480 cells
Chain of SW480 colon carcinoma cells lysate proteins (Homo sapiens, UniProt Q9Y266) (Q9Y266 whole entry): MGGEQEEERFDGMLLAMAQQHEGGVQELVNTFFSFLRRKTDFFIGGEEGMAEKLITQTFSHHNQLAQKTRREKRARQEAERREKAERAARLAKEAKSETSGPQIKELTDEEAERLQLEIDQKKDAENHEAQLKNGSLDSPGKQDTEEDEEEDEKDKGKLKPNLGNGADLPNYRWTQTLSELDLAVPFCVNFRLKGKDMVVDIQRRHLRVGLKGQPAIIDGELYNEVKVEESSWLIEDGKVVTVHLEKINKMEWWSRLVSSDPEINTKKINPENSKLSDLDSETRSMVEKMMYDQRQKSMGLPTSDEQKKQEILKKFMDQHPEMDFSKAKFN

Chain of SW480 colon carcinoma cells lysate proteins (Homo sapiens, UniProt P07237) (P07237 18-508): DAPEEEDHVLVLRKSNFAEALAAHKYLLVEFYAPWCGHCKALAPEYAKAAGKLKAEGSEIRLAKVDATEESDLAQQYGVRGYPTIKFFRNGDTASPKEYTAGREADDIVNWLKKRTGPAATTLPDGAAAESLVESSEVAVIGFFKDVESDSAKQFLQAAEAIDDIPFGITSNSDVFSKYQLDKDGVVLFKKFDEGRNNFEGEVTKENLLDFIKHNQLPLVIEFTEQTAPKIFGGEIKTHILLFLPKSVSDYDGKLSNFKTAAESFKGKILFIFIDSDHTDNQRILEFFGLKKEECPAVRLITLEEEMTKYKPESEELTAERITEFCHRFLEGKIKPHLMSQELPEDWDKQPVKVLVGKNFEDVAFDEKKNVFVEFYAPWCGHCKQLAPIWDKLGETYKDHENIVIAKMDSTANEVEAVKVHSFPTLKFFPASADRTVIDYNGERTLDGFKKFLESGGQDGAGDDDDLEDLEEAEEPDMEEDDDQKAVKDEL
Chain of SW480 colon carcinoma cells lysate proteins (Homo sapiens, UniProt P12814) (P12814 whole entry): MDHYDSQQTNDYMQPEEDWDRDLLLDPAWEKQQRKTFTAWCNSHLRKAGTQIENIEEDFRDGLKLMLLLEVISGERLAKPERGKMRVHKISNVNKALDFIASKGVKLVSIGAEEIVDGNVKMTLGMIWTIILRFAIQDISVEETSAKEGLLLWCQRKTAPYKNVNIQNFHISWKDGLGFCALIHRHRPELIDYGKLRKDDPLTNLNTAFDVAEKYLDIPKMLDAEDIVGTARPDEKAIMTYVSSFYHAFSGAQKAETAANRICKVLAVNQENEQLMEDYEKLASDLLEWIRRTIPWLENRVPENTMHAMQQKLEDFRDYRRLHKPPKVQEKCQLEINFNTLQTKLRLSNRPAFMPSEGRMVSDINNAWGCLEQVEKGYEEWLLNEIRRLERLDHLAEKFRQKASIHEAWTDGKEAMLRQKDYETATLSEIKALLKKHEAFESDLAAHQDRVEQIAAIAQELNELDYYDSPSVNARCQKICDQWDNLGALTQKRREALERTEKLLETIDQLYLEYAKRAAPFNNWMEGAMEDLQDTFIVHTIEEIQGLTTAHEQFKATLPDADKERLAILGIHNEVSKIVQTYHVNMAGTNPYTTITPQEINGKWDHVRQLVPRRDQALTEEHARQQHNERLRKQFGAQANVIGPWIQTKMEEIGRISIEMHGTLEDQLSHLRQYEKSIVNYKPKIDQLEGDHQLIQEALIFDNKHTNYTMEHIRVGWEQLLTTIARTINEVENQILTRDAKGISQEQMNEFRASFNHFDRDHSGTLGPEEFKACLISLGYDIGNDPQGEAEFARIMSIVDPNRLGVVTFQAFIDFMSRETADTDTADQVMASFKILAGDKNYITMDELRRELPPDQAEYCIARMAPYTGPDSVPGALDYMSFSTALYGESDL

C[C@H](Oc1cc(-c2cnn(C3CCNCC3)c2)cnc1N)c1c(Cl)ccc(F)c1Cl [(5)-crizotinib]
AvgP [1]: 0.2142 | SC.Exp. 1-1 [1]: 3 | SC.Exp. 1-2 [1]: 1 | SC.Exp. 2-1 [1]: 0 | SC.Exp. 2-2 [1]: 0 | Sum (SC.Exp.) [1]: 4 | AvgP [2]: 0.4095 | SC.Exp. 1-1 [2]: 3 | SC.Exp. 1-2 [2]: 2 | SC.Exp. 2-1 [2]: 0 | SC.Exp. 2-2 [2]: 0 | Sum (SC.Exp.) [2]: 5 | AvgP [3]: 0.4084 | SC.Exp. 1-1 [3]: 2 | SC.Exp. 1-2 [3]: 3 | SC.Exp. 2-1 [3]: 0 | SC.Exp. 2-2 [3]: 0 | Sum (SC.Exp.) [3]: 5 | AvgP [4]: 0.3981 | SC.Exp. 1-1 [4]: 3 | SC.Exp. 1-2 [4]: 4 | SC.Exp. 2-1 [4]: 0 | SC.Exp. 2-2 [4]: 0 | Sum (SC.Exp.) [4]: 7 | AvgP [5]: 0.8429 | SC.Exp. 1-1 [5]: 4 | SC.Exp. 1-2 [5]: 3 | SC.Exp. 2-1 [5]: 3 | SC.Exp. 2-2 [5]: 3 | Sum (SC.Exp.) [5]: 13 | AvgP [6]: 0.4044 | SC.Exp. 1-1 [6]: 2 | SC.Exp. 1-2 [6]: 3 | SC.Exp. 2-1 [6]: 0 | SC.Exp. 2-2 [6]: 0 | Sum (SC.Exp.) [6]: 5 | AvgP [7]: 0 | SC.Exp. 1-1 [7]: 1 | SC.Exp. 1-2 [7]: 1 | SC.Exp. 2-1 [7]: 0 | SC.Exp. 2-2 [7]: 0 | SC.Exp. Sum [7]: 2 | AvgP [8]: 0.4038 | SC.Exp. 1-1 [8]: 4 | SC.Exp. 1-2 [8]: 2 | SC.Exp. 2-1 [8]: 0 | SC.Exp. 2-2 [8]: 0 | Sum (SC.Exp.) [8]: 6 | AvgP [9]: 0.4547 | SC.Exp. 1-1 [9]: 6 | SC.Exp. 1-2 [9]: 7 | SC.Exp. 2-1 [9]: 0 | SC.Exp. 2-2 [9]: 0 | Sum (SC.Exp.) [9]: 13 | AvgP [10]: 0 | SC.Exp. 1-1 [10]: 0 | SC.Exp. 1-2 [10]: 1 | SC.Exp. 2-1 [10]: 0 | SC.Exp. 2-2 [10]: 0 | SC.Exp. Sum [10]: 1
